Measurements published in patent US9801888B2, “Pyrimidine compounds as mTOR and PI3K inhibitors” (DEVELOPMENT CENTER FOR BIOTECHNOLOGY, priority 2009, dated 2017).

Each compound was assayed against recombinant mTOR (Homo sapiens (Human), UniProt P42345) (assay: mTOR kinase assay (33P incorporation into 4EBP1)). Conditions: compound at 10 μM; 10 μM ATP; versus DMSO control.
Assay type: biochemical
Method: The activity of the compound against mTOR was examined by measuring the incorporation of ^33P from [γ-^33P]-ATP into 4EBP1. His-tagged, recombinant human 4EBP1 was expressed in E. coli, purified by nickel-nitrilotriacetic acid (Ni-NTA) resins, and stored at −80° C. Phosphorylation of 4EBP1 by mTOR was assayed in the presence or absence of the compound and performed in a final volume of 25 μl reaction buffer containing 300 ng 4EBP1, 50 ng recombinant mTOR (Invitrogen), 50 mM HEPES (pH 7.5), 1 mM EGTA, 0.01% Polysorbate 20, 10 mM MnCl2, 2.5 mM DTT, 10 μM ATP, and 0.5 μCi [γ-33P]-ATP (PerkinElmer) for 30 min at 30° C. The reactions were terminated by adding 3% phosphoric acid. The ^33P labeled 4EBP1 was transferred onto UniFilter-96 GF/B plate (PerkinElmer) and quantified by Top Count Microplate Scintillation Counter (PerkinElmer). For primary screening of kinase activity inhibition, each test compound was evaluated at […] in duplicate. […] The IC50 values of the compounds were determined after carrying out assays at eight serially diluted concentrations of each compound in duplicate. The results were analyzed using […] software (GraphPad Prism 5; GraphPad Software Inc.).
IC50 value is defined as the concentration of the test compound which achieves a half-maximal inhibition of the kinase activity.

Chain of recombinant mTOR (P42345 1360-2549): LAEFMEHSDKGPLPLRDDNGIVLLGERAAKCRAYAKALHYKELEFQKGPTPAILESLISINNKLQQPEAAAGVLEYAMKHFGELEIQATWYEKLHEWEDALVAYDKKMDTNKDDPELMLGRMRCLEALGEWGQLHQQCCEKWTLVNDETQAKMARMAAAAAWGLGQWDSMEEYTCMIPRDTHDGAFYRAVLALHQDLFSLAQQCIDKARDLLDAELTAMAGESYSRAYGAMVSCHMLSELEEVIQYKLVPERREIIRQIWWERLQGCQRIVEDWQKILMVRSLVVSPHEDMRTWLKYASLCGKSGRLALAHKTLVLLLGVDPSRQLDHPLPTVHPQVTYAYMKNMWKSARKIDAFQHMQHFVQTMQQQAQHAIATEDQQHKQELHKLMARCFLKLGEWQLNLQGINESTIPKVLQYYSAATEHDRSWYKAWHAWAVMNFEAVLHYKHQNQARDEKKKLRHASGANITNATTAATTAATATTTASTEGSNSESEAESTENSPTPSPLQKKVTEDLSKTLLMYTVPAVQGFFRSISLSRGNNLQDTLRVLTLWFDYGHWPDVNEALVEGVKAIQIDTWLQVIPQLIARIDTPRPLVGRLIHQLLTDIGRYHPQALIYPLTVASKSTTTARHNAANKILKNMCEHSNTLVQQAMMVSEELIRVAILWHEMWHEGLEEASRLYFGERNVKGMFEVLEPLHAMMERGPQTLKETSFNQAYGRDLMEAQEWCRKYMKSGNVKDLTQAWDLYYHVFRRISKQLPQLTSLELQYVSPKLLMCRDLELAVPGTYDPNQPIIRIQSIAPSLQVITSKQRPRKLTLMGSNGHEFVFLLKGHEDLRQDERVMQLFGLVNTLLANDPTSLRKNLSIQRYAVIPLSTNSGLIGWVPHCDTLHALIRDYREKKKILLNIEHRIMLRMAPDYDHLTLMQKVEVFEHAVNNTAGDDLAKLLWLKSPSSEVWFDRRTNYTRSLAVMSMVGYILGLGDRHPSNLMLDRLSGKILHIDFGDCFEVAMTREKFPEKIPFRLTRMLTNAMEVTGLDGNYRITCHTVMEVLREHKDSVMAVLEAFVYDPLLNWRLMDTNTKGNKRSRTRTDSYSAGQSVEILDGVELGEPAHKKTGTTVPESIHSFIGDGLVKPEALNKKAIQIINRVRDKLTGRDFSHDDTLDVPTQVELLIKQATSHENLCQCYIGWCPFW

With `COc1c(-c2ccc(N)cc2)nc(-c2ccc(N)cc2)nc1N1CCOCC1` [MTR-0483] the “% Inhibition @ 10 μM” value was 88%.

The compounds below were run on PI3K (p110β/p85α) (assay: PI3K HTRF enzyme assay, p110β/p85α). Conditions: compound at 500 nM; 100 μM ATP.
Assay type: biochemical
Method: Recombinant PI3K (p110α/p85α) and PI3K (p110β/p85α) were from Millipore. […] Briefly, the compounds of interest dissolved in 100% DMSO were dispensed in all wells, following which the mixture of PIP2 and enzyme was added. PI3K (p110α/p85α) and PI3K (p110β/p85α) enzyme reactions were initiated in the presence of 10 μM and 100 μM ATP, respectively, and incubated for 30 min at room temperature. STOP solution prepared 2 hours prior to use was added to stop reactions, and mixed well. Detection solution prepared 2 hours prior to use was added, and incubated at room temperature for 17 hours in the dark. […] HTRF ration was calculated as follows: […]

Point of comparison: `CCOC(=O)c1nc(-c2ccc(NC(=O)Nc3cccc(F)c3)cc2)nc(N2CCOCC2)c1OCC` [MTR-0147, 5-Ethoxy-2-{4-[3-(3-fluoro-phenyl)-ureido]-phenyl}-6-morpholin-4-yl-pyrimidine-4-carboxylic acid ethyl ester], “% inhibition @ 500 nM p110β” value 1.20%. Against it:
- CSc1c(Cl)nc(-c2ccc(N)nc2)nc1N1CCOCC1 [MTR-0133, 5-(4-Chloro-5-methylsulfanyl-6-morpholin-4-yl-pyrimidin-2-yl)-pyridin-2-ylamine] — higher, 4.50%
- CSc1c(OCCN(C)C)nc(-c2cccc(O)c2)nc1N1CCOCC1 [MTR-0043, 3-[4-(2-Dimethylamino-ethoxy)-5-methylsulfanyl-6-morpholin-4-yl-pyrimidin-2-yl]-phenol] — higher, 44.80%
- CCOc1c(CN2CCN(S(C)(=O)=O)CC2)nc(-c2ccc(NC(=O)Nc3ccccc3)cc2)nc1N1CCOCC1 [MTR-0169, 1-{4-[5-Ethoxy-4-(4-methanesulfonyl-piperazin-1-ylmethyl)-6-morpholin-4-yl-pyrimidin-2-yl]-phenyl}-3-phenyl-urea] — higher, 3.20%
- CCOc1cnc(-c2ccc(NC(=O)Nc3ccc(N4CCOCC4=O)cc3)cc2)nc1-c1ccncc1 [MTR-0398, 1-[4-(5-Ethoxy-4-pyridin-4-yl-pyrimidin-2-yl)-phenyl]-3-[4-(3-oxo-morpholin-4-yl)-phenyl]-urea] — higher, 21.80%
- CSc1cnc(-c2ccc(NC(=O)Nc3ccc(F)cc3)cc2)nc1N1CCOCC1 [MTR-0178, 1-(4-Fluoro-phenyl)-3-[4-(5-methylsulfanyl-4-morpholin-4-yl-pyrimidin-2-yl)-phenyl]-urea] — higher, 8.20%
- CSc1c(Cl)nc(-c2ccc(NC(=O)Nc3ccc(F)cc3)cc2)nc1N1CCOCC1 [MTR-0135, 1-[4-(4-Chloro-5-methylsulfanyl-6-morpholin-4-yl-pyrimidin-2-yl)-phenyl]-3-(4-fluoro-phenyl)-urea] — higher, 14.20%
- COc1cnc(-c2ccc(NC(=O)Nc3cccc(F)c3)cc2)nc1N1CCOCC1 [MTR-0164, 1-(3-Fluoro-phenyl)-3-[4-(5-methoxy-4-morpholin-4-yl-pyrimidin-2-yl)-phenyl]-urea] — higher, 42.10%
